Data published in patent US20240000741A1, “ALL-TRANS RETINOIC ACID ENHANCES RADIOTHERAPY AND OVERCOMES IMMUNE SUPPRESSION FOR CANCER THERAPY” (The University of Chicago, priority 2022, published 2024).

Legend:
B16 melanoma tumor model = assay: B16 melanoma tumor growth after IR and RA; format: in vivo, mouse; conditions: IR and RA combination compared with single treatments
Protocol: 1×10^6 MC38, B16/F1, Renca or CT26 cells were subcutaneously implanted into flanks of mice. Tumors were irradiated using a Phillips IR250 orthovoltage X-ray generator (Phillips, Amsterdam, the Netherlands) operating at 250 kV 15 mA. Subcutaneous local tumors were irradiated by shielding bodies with a cylindrical lead cover with only flank tumors exposed for radiation. ATRA (400 μg/mice/day) was administered by oral gavage for 10 days. For the two-tumor model, 1×10^6 and 0.7×10^6 MC38 cells were subcutaneously implanted into the right and left flank of mice respectively. […] Tumors were measured along two diameters (length and width) and depth twice weekly and volumes were calculated as length×width×depth/2. For CD8 and CD4 T cell depletion experiments, 200 μg antibodies were injected i.p. on day 0, 2, 5 and 8 after radiation. Anti-CD11b antibody was injected i.p. every two days starting 1 day before radiation. Anti-PD-L1 antibody was administered i.p. on day 0, 3, and 7 after radiation at 200 μg/mouse. Anti-IFN-γ was administered i.p. at 500 μg/mouse every 7 days. Anti-NK1.1 antibody was administered via i.p. at 25 μg/mouse every 3 days for 3 doses. Anti-GM-CSF antibody was given by i.p. injection at 250 μg/mouse every 2 days. FTY720 was delivered via gavage at 20 μg per dose every day for 7 days. […]

MC38 cells = assay: Tumor re-challenge of cured mice with MC38 cells; format: in vivo, mouse; conditions: mice cured by IR+RA, re-challenged with 5×10^6 MC38 cells
Protocol: 1×10^6 MC38, B16/F1, Renca or CT26 cells were subcutaneously implanted into flanks of mice. Tumors were irradiated using a Phillips IR250 orthovoltage X-ray generator (Phillips, Amsterdam, the Netherlands) operating at 250 kV 15 mA. Subcutaneous local tumors were irradiated by shielding bodies with a cylindrical lead cover with only flank tumors exposed for radiation. ATRA (400 μg/mice/day) was administered by oral gavage for 10 days. For the two-tumor model, 1×10^6 and 0.7×10^6 MC38 cells were subcutaneously implanted into the right and left flank of mice respectively. For the tumor re-challenge assay, both the cured mice and the naive mice were re-challenged with 5×10^6 MC38 or 1×10^6 LLC cells respectively. Tumors were measured along two diameters (length and width) and depth twice weekly and volumes were calculated as length×width×depth/2. For CD8 and CD4 T cell depletion experiments, 200 μg antibodies were injected i.p. on day 0, 2, 5 and 8 after radiation. Anti-CD11b antibody was injected i.p. every two days starting 1 day before radiation. Anti-PD-L1 antibody was administered i.p. on day 0, 3, and 7 after radiation at 200 μg/mouse. Anti-IFN-γ was administered i.p. at 500 μg/mouse every 7 days. Anti-NK1.1 antibody was administered via i.p. at 25 μg/mouse every 3 days for 3 doses. Anti-GM-CSF antibody was given by i.p. injection at 250 μg/mouse every 2 days. […]

For `CC1=C(/C=C/C(C)=C/C=C/C(C)=C/C(=O)O)C(C)(C)CCC1` [RA, all-trans retinoic acid], the B16 tumor growth (B16 melanoma tumor model) was “significant benefit” and the “tumor formation after re-challenge with MC38 cells” value (MC38 cells) was “did not form tumors”.
